Some results are limits rather than exact numbers.

Tested on in the first series: not given
Test: not given
Details: not given
The compound `O=C(O)[C@@H]1c2ccccc2C(=O)N(c2ccc(F)cc2)[C@H]1c1ccc(F)cc1` (relative stereo) [trans-5e, trans-2,3-Bis(4-fluorophenyl)-1-oxo-1,2,3,4-tetrahydroisoquinoline-4-carboxylic acid] returned a melting point of 116 to 118 °C.

With `O=C(O)[C@@H]1c2ccccc2C(=O)N(c2ccc(Cl)cc2)[C@H]1c1ccc(Cl)cc1` (relative stereo) [trans-5f, trans-2,3-Bis(4-chlorophenyl)-1-oxo-1,2,3,4-tetrahydroisoquinoline-4-carboxylic acid], the melting point was 116 to 127 °C.

In turn, `COc1ccc([C@H]2[C@H](C(=O)O)c3ccccc3C(=O)N2c2ccc(Oc3ccccc3)cc2)cc1` (relative stereo) [trans-5h, trans-3-(4-Methoxyphenyl)-1-oxo-2-(4-phenoxyphenyl)-1,2,3,4-tetrahydroisoquinoline-4-carboxylic acid] returned a melting point of 109 to 115 °C.

The subject of another series is INA-6. Briefly: Cell viability assay (annexin V-FITC/propidium iodide, flow cytometry) in INA-6 multiple myeloma cells. It is filed as cell-based, human. The settings on record: Homo sapiens, INA-6, 72 h, INA-6 multiple myeloma cells, 72 hours of treatment, viable cell fraction; mean of at least three determinations; read-out: INA-6 EC50(±sdv). The method, then: The effect of pharmacological Hsp70 inhibition on cell viability was analyzed after 72 hours of treatment in both non-malignant (mononuclear cells from the peripheral blood) and malignant lymphocytes (multiple myeloma cells). The mononuclear cells were separated from the peripheral blood of healthy donors by Ficoll-Hypaque density gradient centrifugation. The human cell line INA-6 represents a well-established model for multiple myeloma. The percentage of viable and apoptotic cell fractions was assessed using an annexin V-FITC/propidium iodide (PI) staining kit (Bender MedSystems, Vienna, Austria) according to manufacturer's instructions. In brief, cells were washed in PBS, incubated for 10 min in 100 ml binding buffer (10 mM HEPES/NaOH, pH 7.4, 140 mM NaCl, 2.5 mM CaCl2) containing 2.5 ml annexin V-FITC mix and 1 mg/ml propidium iodide (PI), subsequently diluted with 100 ml binding buffer and analyzed by flow cytometry (FACSCalibur/CELLQuest; Becton Dickinson, Heidelberg, Germany). Whereas viable cells are negative for both, annexin V-FITC and PI, early apoptotic cells show a positive annexin V-FITC staining, and cells in a late apoptotic stage which lose their membrane integrity additionally incorporate DNA-binding PI. To establish kill curves, concentrations of the tested compounds were titrated, and the measured viable cell fractions were further analyzed using the Prism Calculation Software (GraphPad Software Inc., La Jolla, USA).
In FIG. 2A Western blot analyses of caspases 9 and 3, and the caspase substrate PARP (upper panel), and viability analyses (lower panel) of INA-6 MM cells upon treatment with trans-7b for 24 hours are shown. INA-6 cells were either incubated with DMSO (as a solvent control) or with 0.6 μM of trans-7b, and additionally incubated either with DMSO or the pan-caspase inhibitor Z-VAD-FMK prior to analyses by Western or viability assessment (without Z-VAD-FMK co-treatment) by Annexin V/propidum iodide double staining. For Western analyses INA-6 cell pellets were dissolved in lysis buffer (20 mM HEPES (pH 7.9), 350 mM NaCl, 1 mM MgCl2, 0.5 mM EDTA, 0.1 mM EGTA, 1% NP40, 0.5 mM dithiothreiol (DTT), 1 mM Na3VO4, 0.1 mM PMSF and 1 μg/ml aprotinin). Lysates were cleared by centrifugation, measured by quantitative protein assay (Bio-Rad, München, Germany) and subjected to SDS gel electrophoresis. Proteins were transferred onto nitrocellulose membranes (Schleicher & Schuell, Dassel, Germany), incubated with antibodies specific for caspase 9, caspase 3 or PARP (Cell Signaling Technology, Frankfurt a.Main, Germany) according to standard procedures and visualized with secondary anti-rabbit horseradish peroxidase (HRP)-conjugated antibodies using an enhanced chemoluminescence detection system (ECL, Amersham, Freiburg, Germany). […] Annexin V/propidium iodide (PI) staining was performed using a fluorescein isothiocyanate (FITC) conjugated recombinant human annexin/propidium iodide kit (BenderMedSystems, Vienna, Austria) according to the manufacturer's instructions. INA-6 cells were washed in PBS, incubated for 15 minutes in 100 ml binding buffer (10 mM HEPES/NaOH, pH 7.4, 140 mM NaCl, 2.5 mM CaCl2) containing 2.5 mL annexin V-FITC mix and 1 mg/ml PI and analyzed by flow cytometry (FACSCalibur/CELLQuest; Becton Dickinson, Heidelberg, Germany). Whereas early apoptosis is characterized by positive annexin V-FITC staining reaction, cells in a late apoptotic stage lose their membrane integrity and additionally incorporate PI. Thus, the fraction of viable cells remains negative for both annexin V-FITC and PI. […] Based on the above described experiments also viability analyses of INA-6 in comparison with non-malignant PBMCs were performed choosing a longer incubation time (72 hours) as shown in FIG. 2B or C. Raw data of three independent experiments have been calculated to establish means, standard deviation and dose-effect curves of trans-7b.
Regarding `COc1ccc([C@H]2[C@H](C(=O)O)c3ccccc3C(=O)N2c2ccc(OC)cc2)cc1` (relative stereo) [cis-6d, Sodium trans-2,3-bis(4-methoxyphenyl)-1-oxo-1,2,3,4-tetrahydroisoquinoline-4-carboxylate], the concentration giving a half-maximal response (EC50) was > 100000 nM.

Consider `COc1ccc([C@H]2[C@@H](C(=O)O)c3ccccc3C(=O)N2c2ccc(OC)cc2)cc1` (relative stereo) [trans-6d, Sodium cis-2,3-bis(4-methoxyphenyl)-1-oxo-1,2,3,4-tetrahydroisoquinoline-4-carboxylate], for which the half-maximal effective concentration (EC50) amounted to 7900 nM.

Take `Cc1cccc(NC(=O)C2c3ccccc3C(=O)N(c3ccccc3)C2c2ccccc2)n1` (stereo not drawn) [trans-7a, trans-N-(6-Methylpyridin-2-yl)-1-oxo-2,3-diphenyl-1,2,3,4-tetrahydroisoquinoline-4-carboxamide]: the EC50 was determined as 2300 nM.

Consider `COc1ccc(C2C(C(=O)Nc3cccc(C)n3)c3ccccc3C(=O)N2c2ccc(OC)cc2)cc1` (stereo not drawn) [trans-7d, trans-2,3-Bis(4-methoxyphenyl)-N-(6-methylpyridin-2-yl)-1-oxo-1,2,3,4-tetrahydroisoquinoline-4-carboxamide], for which the EC50 worked out at 680 nM.

As for `COc1ccc(C2C(C(=O)Nc3ccccn3)c3ccccc3C(=O)N2c2ccc(OC)cc2)cc1` (stereo not drawn) [trans-7f, trans-2,3-Bis(4-methoxyphenyl)-1-oxo-N-(pyridin-2-yl)-1,2,3,4-tetrahydroisoquinoline-4-carboxamide], the concentration giving a half-maximal response (EC50) worked out at 530 nM.

As to `CNC(=O)C1c2ccccc2C(=O)N(c2ccc(OC)cc2)C1c1ccc(OC)cc1` (stereo not drawn) [trans-7g, trans-2,3-Bis(4-methoxyphenyl)-N-methyl-1-oxo-1,2,3,4-tetrahydroisoquinoline-4-carboxamide], the EC50 was 7100 nM.

On to `COc1ccc(C2C(C(=O)N(C)C)c3ccccc3C(=O)N2c2ccc(OC)cc2)cc1` (stereo not drawn) [trans-7h, trans-2,3-Bis(4-methoxyphenyl)-N,N-dimethyl-1-oxo-1,2,3,4-tetrahydroisoquinoline-4-carboxamide], for which the EC50 is > 100000 nM.

For `COc1ccc(C2C(C(=O)Nc3cccc4c3CCCC4)c3ccccc3C(=O)N2c2ccc(OC)cc2)cc1` (stereo not drawn) [trans-7i, trans-2,3-Bis(4-methoxyphenyl)-1-oxo-N-(5,6,7,8-tetrahydronaphthalen-1-yl)-1,2,3,4-tetrahydroisoquinoline-4-carboxamide], the EC50 was > 100000 nM.

For `COc1ccc(C2C(C(=O)Nc3cc(C)cc(C)c3)c3ccccc3C(=O)N2c2ccc(OC)cc2)cc1` (stereo not drawn) [trans-7j, trans-N-(3,5-Dimethylphenyl)-2,3-bis(4-methoxyphenyl)-1-oxo-1,2,3,4-tetrahydroisoquinoline-4-carboxamide], the half-maximal effective concentration (EC50) stood at 950 nM.

`Cc1cccc(NC(=O)C2c3ccccc3C(=O)N(c3ccc(F)cc3)C2c2ccc(F)cc2)n1` (stereo not drawn) [trans-7k, trans-2,3-Bis(4-fluorophenyl)-N-(6-methylpyridin-2-yl)-1-oxo-1,2,3,4-tetrahydroisoquinoline-4-carboxamide]: the concentration for a half-maximal effect (EC50) is 6400 nM.

Consider `Cc1cccc(NC(=O)C2c3ccccc3C(=O)N(c3ccc(Cl)cc3)C2c2ccc(Cl)cc2)n1` (stereo not drawn) [trans-7l, trans-2,3-Bis(4-chlorophenyl)-N-(6-methylpyridin-2-yl)-1-oxo-1,2,3,4-tetrahydroisoquinoline-4-carboxamide], for which the EC50 was 2900 nM.

`Cc1cc(C)cc(C2C(C(=O)Nc3cccc(C)n3)c3ccccc3C(=O)N2c2cc(C)cc(C)c2)c1` (stereo not drawn) [trans-7m, trans-2,3-Bis(3,5-dimethylphenyl)-N-(6-methylpyridin-2-yl)-1-oxo-1,2,3,4-tetrahydroisoquinoline-4-carboxamide]: the EC50 is 43000 nM.

Turning to `COc1ccc(C2C(C(=O)Nc3cccc(C)n3)c3ccccc3C(=O)N2c2ccc(Oc3ccccc3)cc2)cc1` (stereo not drawn) [trans-7n, trans-3-(4-Methoxyphenyl)-N-(6-methylpyridin-2-yl)-1-oxo-2-(4-phenoxyphenyl)-1,2,3,4-tetrahydroisoquinoline-4-carboxamide], the EC50 was > 100000 nM.

Consider `Cc1cccc(NC(=O)C2c3ccccc3C(=O)N(c3ccc(O)cc3)C2c2ccc(O)cc2)n1` (stereo not drawn) [trans-7o, trans-2,3-Bis(4-hydroxyphenyl)-N-(6-methylpyridin-2-yl)-1-oxo-1,2,3,4-tetrahydroisoquinoline-4-carboxamide], for which the concentration giving a half-maximal response (EC50) was determined as 30000 nM.

As for `COc1ccc(C2C(C(=O)Nc3ncccn3)c3ccccc3C(=O)N2c2ccccc2)cc1` (stereo not drawn) [trans-7p, trans-3-(4-Methoxyphenyl)-1-oxo-2-phenyl-N-(pyrimidin-2-yl)-1,2,3,4-tetrahydroisoquinoline-4-carboxamide], the EC50 is 200 nM.

With `COc1ccc(C2C(C(=O)Nc3cccnc3)c3ccccc3C(=O)N2c2ccccc2)cc1` (stereo not drawn) [trans-7q, trans-3-(4-Methoxyphenyl)-1-oxo-2-phenyl-N-(pyridin-3-yl)-1,2,3,4-tetrahydroisoquinoline-4-carboxamide], the EC50 is 570 nM.

Consider `COc1ccc(C2C(C(=O)Nc3cc(C)cc(C)n3)c3ccccc3C(=O)N2c2ccccc2)cc1` (stereo not drawn) [trans-7r, trans-N-(4,6-Dimethylpyridin-2-yl)-3-(4-methoxyphenyl)-1-oxo-2-phenyl-1,2,3,4-tetrahydroisoquinoline-4-carboxamide], for which the EC50 worked out at 340 nM.

The series is the same for the next values; noted with them: Homo sapiens, INA-6, 72 h, read-out: INA-6 EC50(±sdv).
For `COc1ccc(N2C(=O)c3ccccc3[C@H](C(=O)O)[C@@H]2c2ccccc2)cc1` (relative stereo) [cis-6c, Sodium cis-2-(4-methoxyphenyl)-1-oxo-3-phenyl-1,2,3,4-tetrahydroisoquinoline-4-carboxylate], the EC50 is > 100000 nM.

Regarding `COc1ccc([C@H]2[C@H](C(=O)O)c3ccccc3C(=O)N2c2ccccc2)cc1` (relative stereo) [trans-6b, Sodium trans-3-(4-methoxyphenyl)-1-oxo-2-phenyl-1,2,3,4-tetrahydroisoquinoline-4-carboxylate], the EC50 came out at 2000 nM.

With `COc1ccc(N2C(=O)c3ccccc3[C@@H](C(=O)O)[C@@H]2c2ccccc2)cc1` (relative stereo) [trans-6c, Sodium trans-2-(4-methoxyphenyl)-1-oxo-3-phenyl-1,2,3,4-tetrahydroisoquinoline-4-carboxylate], the EC50 came out at 64000 nM.

With `COc1ccc(C2C(C(=O)Nc3cccc(C)c3)c3ccccc3C(=O)N2c2ccc(OC)cc2)cc1` (stereo not drawn) [trans-7e, trans-2,3-Bis(4-methoxyphenyl)-1-oxo-N-(m-tolyl)-1,2,3,4-tetrahydroisoquinoline-4-carboxamide], the EC50 is 880 nM.
